The values that follow come from patent US20240254087A1, “SELECTIVE, PARTIAL, AND ARRESTIN-BIASED 5-HT2A AGONISTS WITH UTILITY IN VARIOUS DISORDERS” (Saint Joseph's University, priority 2021, published 2024).

SMILES strings stand for the structures. Counter-ions that a name gives are not always drawn. Like-named read-outs stand apart in the source and are kept apart here.

Series [1] addresses T1, 5-HT2B (Homo sapiens, UniProt P41595). Nature of the series: Ca2+ flux assay, 5-HT2B. It is filed as cell-based. The arrangement: expressed in transfected cells. The conditions noted are these: Ca2+ flux. On the procedure: (§1) Cell lines were maintained in DMEM containing 10% FBS, 10 μg/mL Blasticidin (Invivogen), and 100 μg/mL Hygromycin B (GoldBio). At least 20-24 hours before the assay, receptor expression was induced with tetracycline ([…]) and cells were seeded into 384-well poly-L-lysine-coated black plates at a density of 7,500 cells/well in DMEM containing 1% dialyzed FBS. On the day of the assay, the cells were incubated for 1 h at 37° C. with Fluo-4 Direct dye (Invitrogen, 20 μl/well) reconstituted in drug buffer (20 mM HEPES-buffered HBSS, pH 7.4) containing 2.5 mM probenecid. Drug dilutions were prepared at 5X final concentration in McCorvy buffer (20 mM HEPES-buffered HBSS, 0).1% BSA, 0.01% ascorbic acid pH 7.4). After dye load, cells were allowed to equilibrate to room temperature for 15 minutes, and then placed in a FLIPR^TETRA fluorescence imaging plate reader (Molecular Devices). Fluorescence for the FLIPR^TETRA were programmed to read baseline fluorescence for 10 s (1 read/s), and afterward 5 μl of drug per well was added and read for a total of 5-10 min (1 read/s). Fluorescence in each well was normalized to the average of the first 10 reads for baseline fluorescence, and then either maximum-fold peak increase over basal or area under the curve (AUC) was calculated. […] Data was plotted and non-linear regression was performed using “log(agonist) vs. response” in Graphpad Prism 8 to yield Emax and EC50 parameter estimates.

Series [2] deals with 5-HT2A. Nature of the series: Ca2+ flux assay, 5-HT2A. The conditions noted are these: Gq/11 Ca2+ mobilization; higher number = skewed towards 5-HT2A. It is filed as cell-based, human. On the procedure:
as §1

For series [3], the system named is male C57BL/6J mice. Nature of the series: Head-twitch response (HTR) in mice. It is filed as in vivo, mouse. As to conditions: for ED50: Mus musculus. On the procedure: Male C57BL/6J mice (6-8 weeks old) from Jackson Labs (Bar Harbor, ME, USA) were used for the behavioral experiments. The mice were housed on a reversed light-dark cycle (lights on at 1900 h, off at 0700 h) in an AAAC-approved vivarium at the University of California San Diego. Mice were housed up to four per cage in a climate-controlled room and with food and water provided ad libitum except during behavioral testing. Testing was performed between 1000 and 1800 h (during the dark phase of the light-dark cycle). The studies were conducted in accordance with National Institutes Health (NIH) guidelines and were approved by the University of California San Diego Institutional Animal Care and Use Committee.
The mice were allowed to recover from the magnet implantation surgeries for at least 1 week prior to behavioral testing. HTR experiments were conducted in a well-lit room, and the mice were allowed to habituate to the room for at least 1 h prior to testing. Head twitches was assessed in a 12-cm diameter glass cylinder surrounded by a magnetometer coil. Coil voltage was low-pass filtered (2 kHz), amplified, and digitized (20-kHz sampling rate) using a Powerlab/8SP with LabChart v 7.3.2 (ADInstruments, Colorado Springs, CO, USA). […] HTR counts were analyzed using one-way ANOVAs. Dunnett's test was used for post hoc comparisons.

Series [4] addresses T1, 5-HT2B. Kind of series: BRET Gq dissociation, 5-HT2B. It is filed as cell-based. The arrangement: expressed in transfected cells; host or cells: HEK293T, transient.
The target in series [5] is T2, 5-HT2C (Homo sapiens, UniProt P28335).
T2 sequence (P28335 33-458): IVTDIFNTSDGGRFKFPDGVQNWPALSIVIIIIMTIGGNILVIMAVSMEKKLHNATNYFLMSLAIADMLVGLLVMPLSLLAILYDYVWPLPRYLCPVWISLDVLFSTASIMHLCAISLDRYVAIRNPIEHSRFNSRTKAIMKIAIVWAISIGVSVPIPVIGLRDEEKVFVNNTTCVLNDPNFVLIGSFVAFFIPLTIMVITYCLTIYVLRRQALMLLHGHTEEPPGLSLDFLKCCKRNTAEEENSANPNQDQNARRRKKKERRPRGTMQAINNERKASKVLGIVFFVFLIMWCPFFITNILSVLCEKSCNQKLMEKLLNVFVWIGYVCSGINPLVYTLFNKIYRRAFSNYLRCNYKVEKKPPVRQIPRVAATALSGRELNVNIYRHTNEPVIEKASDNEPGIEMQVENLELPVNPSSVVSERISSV
Nature of the series: BRET Gq dissociation, 5-HT2C. It is filed as cell-based. On the set-up: expressed in transfected cells; host or cells: HEK293T, transient.

The target in series [6] is T2, 5-HT2C. Nature of the series: Ca2+ flux assay, 5-HT2C. It is filed as cell-based. The arrangement: expressed in transfected cells. As to the method:
as §1

The target in series [7] is 5-HT2A (Homo sapiens, UniProt P28223). Kind of series: Ca2+ flux assay, 5-HT2A. It is filed as cell-based. On the set-up: expressed in transfected cells. On the procedure:
as §1

T1 sequence (P41595 whole entry): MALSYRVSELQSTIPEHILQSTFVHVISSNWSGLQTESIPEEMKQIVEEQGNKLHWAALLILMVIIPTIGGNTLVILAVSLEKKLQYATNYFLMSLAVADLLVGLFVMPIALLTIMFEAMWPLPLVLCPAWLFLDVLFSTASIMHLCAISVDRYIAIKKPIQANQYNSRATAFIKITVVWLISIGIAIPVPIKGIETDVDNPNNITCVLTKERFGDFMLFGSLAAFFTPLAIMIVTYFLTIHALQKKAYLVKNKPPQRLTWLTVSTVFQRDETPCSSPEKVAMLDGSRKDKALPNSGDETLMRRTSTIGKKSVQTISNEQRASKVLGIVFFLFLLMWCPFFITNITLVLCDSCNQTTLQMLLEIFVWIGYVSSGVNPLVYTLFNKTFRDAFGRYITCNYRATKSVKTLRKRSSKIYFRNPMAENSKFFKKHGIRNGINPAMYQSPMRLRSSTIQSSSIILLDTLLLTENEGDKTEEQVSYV
Sequence of 5-HT2A (Homo sapiens, UniProt P28223) (P28223 whole entry): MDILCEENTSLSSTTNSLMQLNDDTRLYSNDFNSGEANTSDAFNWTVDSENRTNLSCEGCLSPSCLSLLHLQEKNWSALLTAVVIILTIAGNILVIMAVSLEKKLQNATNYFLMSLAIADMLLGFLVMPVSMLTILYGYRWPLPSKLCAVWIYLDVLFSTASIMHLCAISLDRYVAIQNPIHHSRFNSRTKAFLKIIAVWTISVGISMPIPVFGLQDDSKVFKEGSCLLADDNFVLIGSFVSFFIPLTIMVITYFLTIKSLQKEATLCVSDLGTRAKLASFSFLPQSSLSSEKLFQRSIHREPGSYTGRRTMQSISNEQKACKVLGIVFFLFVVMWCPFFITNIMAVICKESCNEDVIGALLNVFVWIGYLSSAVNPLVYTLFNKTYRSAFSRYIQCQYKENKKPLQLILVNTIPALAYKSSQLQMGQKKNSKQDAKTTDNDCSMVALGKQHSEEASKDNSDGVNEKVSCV

The compound `COc1cc([N+](=O)[O-])c(OC)cc1CCNCc1ccc(F)cc1` (as salt: HCl) [25N-NB-4-F (25), [2-(2,5-dimethoxy-4-nitrophenyl)ethyl][(4-fluorophenyl)methyl]amine] had a melting point of 180 to 181 °C.
Still for that read-out and setting: the value for `COc1cc(Br)cc(OC)c1CC(C)NCc1cccc2ccccc12` (centres unmarked) (as salt: HCl) [(33)] was 207.9 to 209.2 °C; that for `COc1cc([N+](=O)[O-])c(OC)cc1CCNCc1ccccc1[N+](=O)[O-]` (as salt: HCl) [25N-NBNO2 (15), [2-(2,5-dimethoxy-4-nitrophenyl)ethyl][(2-nitrophenyl)methyl]amine] was 200.5 to 201.7 °C.
Compound `COc1cc([N+](=O)[O-])c(OC)cc1CCNCc1cccc(F)c1OC` (as salt: HCl) [25N-NB-2-MeO-3-F (19), [2-(2,5-dimethoxy-4-nitrophenyl)ethyl][(3-fluoro-2-methoxyphenyl)methyl]amine] returned a melting point of 155 to 156.7 °C.
Compound `COc1cc([N+](=O)[O-])c(OC)cc1CCNCc1ccccc1` (as salt: HCl) [25N-NB (2), Benzyl[2-(2,5-dimethoxy-4-nitrophenyl)ethyl]amine] yielded a melting point of 220 to 221 °C.
`COc1cc(Br)c(CCNCc2cccc(C)c2O)cc1OC` (as salt: HCl) [(43), 2-(((2-bromo-4,5-dimethoxyphenethyl)-amino)-methyl)-6-methylphenol] yielded a melting point of 169.4 to 169.9 °C.
On the same count and under the same terms, under `COc1cc([N+](=O)[O-])c(OC)cc1CCNCc1cccc2ccccc12` (as salt: HCl) [25N-N-1-Nap (16), [2-(2,5-dimethoxy-4-nitrophenyl)ethyl][(naphthalen-1-yl)methyl]amine] stands 191.8 to 192.3 °C; under `COc1cc(OC)c(OC)cc1CCNCc1cccc(I)c1` (as salt: HCl) [(53), N-(3-iodobenzyl)-2-(2,4,5-trimethoxyphenyl)-ethan-1-amine], 155.5 to 156.1 °C.
As for `COc1cc([N+](=O)[O-])c(OC)cc1CCNCc1ccccc1Cl` [25N-NBCl (8)], in series [1], the “5-HT2B EC50, nM” value is “No activity”. Moreover, the Emax in series [1] (read-out: 5-HT2B Emax % 5-HT) was under 10%; in series [4] (read-out: 5-HT2B Gq Dissociation (BRET) EMAX ± SEM (%5-HT)) it was 27 ± 3%; in series [5] (read-out: 5-HT2C Gq Dissociation (BRET) EMAX ± SEM (%5-HT)) it was 82.5 ± 2.8%; in series [6] (read-out: 5-HT2C Emax % 5-HT), 81 ± 2%; in series [7] (read-out: 5-HT2A Emax % 5-HT, Ca2+ flux), 80 ± 2%. For the same compound, the “5-HT2A/5-HT2c Selectivity Factor ΔLog(Emax/EC50)” value in series [2] is reported as 43.3. Further, in series [3], the “Max HTR response during a 30-min assessment (maximum counts ÷ baseline response)” value was 2.3-fold increase. The ED50 in series [3] (read-out: HTR ED50 μmol/kg (95% CI), SC, except DOI and 25D-NBOMe IP) was 10.4 µmol/kg; in series [3] (read-out: HTR ED50 mg/kg (95% CI), SC, except DOI and 25D-NBOMe IP), 4.04 mg/kg. In addition, the EC50 in series [4] was 0.204 µM; in series [5], 0.0214 µM; in series [6] (5-HT2C EC50, nM), 89.3 nM; in series [7] (5-HT2A EC50, nM, Ca2+ flux) it was 2.03 nM.
Take `COc1cc([N+](=O)[O-])c(OC)cc1CCNCc1ccccc1-c1ccccc1` (as salt: HCl) [25N-NBPh (17), ({[1,1′-biphenyl]-2-yl}methyl)[2-(2,5-dimethoxy-4-nitrophenyl)ethyl]amine]: the melting point lay in the range of 181.5 to 182.5 °C.
Compound `COc1cc([N+](=O)[O-])c(OC)cc1CCNCc1cccc(O)c1` (as salt: HCl) [25N-NB-3-OH (21), 3-({[2-(2,5-dimethoxy-4-nitrophenyl)ethyl]amino}methyl)phenol] gave a melting point of 194 to 195.5 °C.
On the same count and under the same terms, the value for `COc1cc(OC)c(OC)cc1CCNCc1ccccc1-c1cccs1` (as salt: HCl) [(59), N-(2-(thiophen-2-yl)benzyl)-2-(2,4,5-trimethoxyphenyl)-ethan-1-amine] was 158.4 to 159.8 °C.
For the compound `COc1cc([N+](=O)[O-])c(OC)cc1CCNCc1cccc(F)c1` (as salt: HCl) [25N-NB-3-F (24), [2-(2,5-dimethoxy-4-nitrophenyl)ethyl][(3-fluorophenyl)methyl]amine], the melting point was 216.2 to 217.5 °C.
On the same count and under the same terms, the value for `COc1cc(OC)c(OC)cc1CCNC(C)c1cccc2ccccc12` (centres unmarked) (as salt: HCl) was 195.2 to 196.4 °C; that for `COc1cc([N+](=O)[O-])c(OC)cc1CCNCc1cccc2c1OC(F)(F)O2` (as salt: HCl) [25N-NBMDF2 (13), [(2,2-difluoro-2H-1,3-benzodioxol-4-yl)methyl][2-(2,5-dimethoxy-4-nitrophenyl)ethyl]amine] was 208.4 to 209.8 °C.
The compound `COc1cc([N+](=O)[O-])c(OC)cc1CCNCc1cccc(C)c1` (as salt: HCl) [25N-NB-3-Me (22), [2-(2,5-dimethoxy-4-nitrophenyl)ethyl][(3-methylphenyl)methyl]amine] came in with a melting point of 194.4 to 195.5 °C.
Turning to `COc1cc([N+](=O)[O-])c(OC)cc1CCNCc1ccccc1C(F)(F)F` (as salt: HCl) [25N-NBCF3 (14), [2-(2,5-dimethoxy-4-nitrophenyl)ethyl]({[2-(trifluoromethyl)phenyl]methyl}) amine], the melting point lay in the range of 156.7 to 159.1 °C.
Still for that read-out and setting: the value for `COc1cc([N+](=O)[O-])c(OC)cc1CCNCc1ccc(C)cc1` (as salt: HCl) [25N-NB-4-Me (23), [2-(2,5-dimethoxy-4-nitrophenyl)ethyl] [(4-methylphenyl)methyl]amine] was 182 to 184 °C; that for `COc1cc([N+](=O)[O-])c(OC)cc1CCNCc1cccc(C)c1O` (as salt: HCl) [25N-NB-2-OH-3-Me (18), 2-({[2-(2,5-dimethoxy-4-nitrophenyl)ethyl]amino}methyl)-6-methylphenol] was 177.6 to 179.5 °C.
Turning to `COc1cc(CCNCc2cccc3ccccc23)cc(OC)c1Br` (as salt: HCl) [(31), 2-(4-bromo-3,5-dimethoxyphenyl)-N-[(naphthalen-1-yl)-methyl]ethan-1-amine], the melting point lay within 232.8 to 234.3 °C.
Still for that read-out and setting: under `COc1cc([N+](=O)[O-])c(OC)cc1CCNCc1ccccc1O` (as salt: HCl) [25N-NBOH (3), 2-({[2-(2,5-dimethoxy-4-nitrophenyl)ethyl]amino}methyl)phenol] stands 205 to 206.7 °C.
Still for that read-out and setting: under `COc1cc([N+](=O)[O-])c(OC)cc1CCNCc1ccccc1OC` (as salt: HCl) [25N-NBOMe (4), [2-(2,5-dimethoxy-4-nitrophenyl)ethyl] [(2-methoxyphenyl)methyl]amine] stands 166.4 to 167.8 °C.
